Assays:
XBP1 splicing = assay: Cellular XBP1 splicing assay; assay type: cell-based; settings: ARPE-19 cells stably expressing XBP1-nano-luciferase, thapsigargin 150 nM, 4 hour incubation
Procedure: Cellular XBP1 Splicing Assay
ARPE-19 cells stably expressing XBP1 (a.a. 1-376) with nano-luciferase gene sequence linked so it is in frame when XBP1 is spliced, were cultured in F12 media, 10% FBS, 0.044% sodium bicarbonate, 150 μg/ml hygromycin B and seeded for assays at 5,000 cells in 384 well plates in culture media without hygromycin B and incubated at 37° C./5% CO2. After overnight incubation test compounds were added to the cell plate in a 10-point ½ log dilution series in duplicate (final DMSO concentration 0.117%). After further incubation of 30 minutes thapsigargin was added (final concentration 150 nM) and then another 4 hour incubation. A NanoLuc luciferase assay (Promega) was used according to the manufacturer's instructions to detect the luciferase and luminescence measured on a luminometer (EnVision, PerkinElmer). IC50 values calculated by fitting a sigmoidal curve to percent inhibition of control of compound concentration.
(§1) In vitro assay data are for the inhibition of RNase activity of IRE1α. Cellular assay (IC50 data) are for the XBP1 splicing assay.

IRE1α = target: T1, IRE1α (Homo sapiens, UniProt O75460); assay: Biochemical assay: inhibition of RNase activity of IRE1α; settings: IRE1α kinase (E31-11G, Signal Chem) 0.325 nM, substrate 100 nM, 30 min pre-incubation, read-out: In vitro assay IC50
T1 construct: purchased Signal Chem E31-11G
Procedure: Biochemical Assay: Inhibition of RNase activity of IRE1α
The RNase reactions were performed in 384 well black ProxiPlate-384 Plus plates (PERKIN Elmer) using 50 mM Tris assay buffer with 0.5 mM MgCl2, 10 mM KCl, 0.03% Tween, 2 mM DTT and 1% DMSO. Test compounds were prepared on the day of assay and dispensed using D300 digital dispenser as a 10-point ½ log dilution series in duplicate, normalized to a final DMSO concentration of […]. Test compounds were pre-incubated for 30 min at room temperature with IRE1α kinase (E31-11G from Signal Chem) in 2.5 μL of assay buffer. Then 2.5 μl of assay buffer containing substrate (5′ Alexa Fluor 647-rCrArU rGrUrC rCrGrC rArGrC rGrCrArUrG-Iowa Black RQ quencher 3′) added, giving a final concentration of enzyme of 0.325 nM and of substrate of 100 nM. After 20 minutes incubation at room temperature the reactions were stopped by added 5 μL of 5M urea, incubated at room temperature for 10 minutes and fluorescence measured on a plate reader (EnVision, PerkinElmer) IC50 values calculated by fitting a sigmoidal curve to percent inhibition of control versus compound concentration.
as §1

T1 sequence (O75460 468-977 limits assumed): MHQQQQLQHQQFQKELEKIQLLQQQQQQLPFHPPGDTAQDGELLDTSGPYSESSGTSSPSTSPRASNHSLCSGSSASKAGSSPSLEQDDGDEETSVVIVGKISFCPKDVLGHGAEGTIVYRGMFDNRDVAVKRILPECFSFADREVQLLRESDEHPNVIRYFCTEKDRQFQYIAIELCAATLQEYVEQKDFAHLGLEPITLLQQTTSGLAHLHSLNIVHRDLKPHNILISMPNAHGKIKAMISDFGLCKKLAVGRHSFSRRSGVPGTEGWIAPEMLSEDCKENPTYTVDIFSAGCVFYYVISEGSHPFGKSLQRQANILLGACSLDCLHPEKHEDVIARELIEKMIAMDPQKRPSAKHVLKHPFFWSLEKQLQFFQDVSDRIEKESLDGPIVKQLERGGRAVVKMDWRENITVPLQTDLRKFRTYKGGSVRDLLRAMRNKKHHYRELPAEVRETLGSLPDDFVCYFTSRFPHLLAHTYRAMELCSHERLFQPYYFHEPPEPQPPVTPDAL

Q: For `CC(C)c1nc(-c2ccc(NS(=O)(=O)c3ccccn3)c(F)c2)c2c(N)ncc(C3=CCC(NC4COC4)CC3)n12` (centres unmarked) [Example 14, N-(4-(8-Amino-3-isopropyl-5-(4-(oxetan-3-ylamino)cyclohex-1-en-1-yl)imidazo[1,5-a]pyrazin-1-yl)-2-fluorophenyl)pyridine-2-sulfonamide], which IC50 (XBP1 splicing; Homo sapiens) is on record?
A: Its IC50 is 5400 nM.

Q: What does the source list for `CC(C)c1nc(-c2ccc(NS(=O)(=O)c3ccccc3F)c(F)c2Cl)c2c(N)ncc(C3=CCC(NC4COC4)CC3)n12` (centres unmarked) [Example 9, N-(4-(8-Amino-3-isopropyl-5-(4-(oxetan-3-ylamino)cyclohex-1-en-1-yl)imidazo[1,5-a]pyrazin-1-yl)-3-chloro-2-fluorophenyl)-2-fluorobenzenesulfonamide]?
A: IC50 (XBP1 splicing; Homo sapiens): 760 nM; IC50 (IRE1α): 69 nM

Q: For `CC(C)c1nc(-c2ccc(NS(=O)(=O)c3ccccc3F)c(F)c2)c2c(N)ncc(C3=CCC(NC4COC4)CC3)n12` (centres unmarked) [Example 6, N-(4-(8-Amino-3-isopropyl-5-(4-(oxetan-3-ylamino)cyclohex-1-en-1-yl)imidazo[1,5-a]pyrazin-1-yl)-2-fluorophenyl)-2-fluorobenzenesulfonamide], which IC50 (XBP1 splicing; Homo sapiens) is on record?
A: Its IC50 is 98 nM.

Q: What about the IC50 (IRE1α) of the same compound?
A: Its IC50 is 150 nM.

Q: What does the source list for `CC(C)c1nc(-c2ccc(NS(=O)(=O)c3ccc(C(F)(F)F)nc3)c(F)c2)c2c(N)ncc(C3=CCC(NC4COC4)CC3)n12` (centres unmarked) [Example 12, N-(4-(8-Amino-3-isopropyl-5-(4-(oxetan-3-ylamino)cyclohex-1-en-1-yl)imidazo[1,5-a]pyrazin-1-yl)-2-fluorophenyl)-6-(trifluoromethyl)pyridine-3-sulfonamide]?
A: IC50 (XBP1 splicing; Homo sapiens): 6600 nM; IC50 (IRE1α): 140 nM

Q: `CC(C)c1nc(-c2cc(F)c(NS(=O)(=O)c3ccccc3Cl)cc2F)c2c(N)ncc(C3=CCC(NC4COC4)CC3)n12` (centres unmarked) [Example 8, N-(4-(8-Amino-3-isopropyl-5-(4-(oxetan-3-ylamino)cyclohex-1-en-1-yl)imidazo[1,5-a]pyrazin-1-yl)-2,5-difluorophenyl)-2-chlorobenzenesulfonamide] was tested. Which IC50 (XBP1 splicing; Homo sapiens) did it give?
A: Its IC50 is 170 nM.

Q: What about the IC50 (IRE1α) of the same compound?
A: Its IC50 is 110 nM.

Q: For `Cc1nc(NS(=O)(=O)c2ccccc2Cl)ccc1-c1nc(C(C)C)n2c(C3=CCC(NC4COC4)CC3)cnc(N)c12` (centres unmarked) [Example 21, N-(5-(8-amino-3-isopropyl-5-(4-(oxetan-3-ylamino)cyclohex-1-en-1-yl)imidazo[1,5-a]pyrazin-1-yl)-6-methylpyridin-2-yl)-2-chlorobenzenesulfonamide], which IC50 (XBP1 splicing; Homo sapiens) is on record?
A: The IC50 was 6100 nM.

Q: What about the IC50 (IRE1α) of the same compound?
A: Its IC50 is greater than 1000 nM.

Q: For `CC(C)c1nc(-c2ccc(NS(=O)(=O)c3ccccc3Cl)c(F)c2)c2c(N)ncc([C@H]3CC[C@H](NC4COC4)CC3)n12` [Example 4, N-(4-(8-Amino-3-isopropyl-5-((1r,4r)-4-(oxetan-3-ylamino)cyclohexyl)imidazo[1,5-a]pyrazin-1-yl)-2-fluorophenyl)-2-chlorobenzene sulfonamide], which IC50 (XBP1 splicing) is on record?
A: The IC50 was 5 nM.

Q: And the IC50 (IRE1α)?
A: Its IC50 is 6.4 nM.

Q: Which results are given for `CC(C)c1nc(-c2ccc(NS(=O)(=O)c3ccccc3Cl)c(F)c2)c2c(N)ncc(C3=CCC(N4CCOCC4)CC3)n12` (centres unmarked) [Example 18, N-(4-(8-Amino-3-isopropyl-5-(4-morpholinocyclohex-1-en-1-yl)imidazo[1,5-a]pyrazin-1-yl)-2-fluorophenyl)-2-chlorobenzenesulfonamide]?
A: IC50 (XBP1 splicing; Homo sapiens): 85 nM; IC50 (IRE1α): 82 nM

Q: For `CC(C)c1nc(-c2ccc(NS(=O)(=O)c3ccccc3Cl)c(F)c2)c2c(N)ncc([C@H]3CC[C@@H](N)CC3)n12` [Example 1, N-(4-(8-Amino-5-((1s,4s)-4-aminocyclohexyl)-3-isopropylimidazo[1,5-a]pyrazin-1-yl)-2-fluorophenyl)-2-chlorobenzenesulfonamide], which IC50 (XBP1 splicing; Homo sapiens) is on record?
A: The IC50 was 510 nM.

Q: And the IC50 (IRE1α)?
A: The IC50 was 290 nM.

Q: Which results are given for `COc1nc(NS(=O)(=O)c2ccccc2Cl)ccc1-c1nc(C(C)C)n2c(C3=CCC(NC4COC4)CC3)cnc(N)c12` (centres unmarked) [Example 20, N-(5-(8-amino-3-isopropyl-5-(4-(oxetan-3-ylamino)cyclohex-1-en-1-yl)imidazo[1,5-a]pyrazin-1-yl)-6-methoxypyridin-2-yl)-2-chlorobenzenesulfonamide]?
A: IC50 (XBP1 splicing; Homo sapiens): > 10000 nM; IC50 (IRE1α): > 1000 nM

Q: What does the source list for `Cc1nc(S(=O)(=O)Nc2ccc(-c3nc(C(C)C)n4c(C5=CCC(NC6COC6)CC5)cnc(N)c34)cc2F)cs1` (centres unmarked) [Example 15, N-(4-(8-Amino-3-isopropyl-5-(4-(oxetan-3-ylamino)cyclohex-1-en-1-yl)imidazo[1,5-a]pyrazin-1-yl)-2-fluorophenyl)-2-methylthiazole-4-sulfonamide]?
A: IC50 (XBP1 splicing; Homo sapiens): 6500 nM; IC50 (IRE1α): 480 nM

Q: For `CC(C)c1nc(-c2ccc(NS(=O)(=O)Cc3ccccc3Cl)c(F)c2)c2c(N)ncc(C3=CCC(N(C)C)CC3)n12` (centres unmarked) [Example 22], which IC50 (XBP1 splicing; Homo sapiens) is on record?
A: Its IC50 is 1.7 nM.

Q: What about the IC50 (IRE1α) of the same compound?
A: The IC50 was 1.5 nM.

Q: Which IC50 (XBP1 splicing; Homo sapiens) does the source give for `COc1ccc(S(=O)(=O)Nc2ccc(-c3nc(C(C)C)n4c(C5=CCC(NC6COC6)CC5)cnc(N)c34)cc2F)cn1` (centres unmarked) [Example 11, N-(4-(8-Amino-3-isopropyl-5-(4-(oxetan-3-ylamino)cyclohex-1-en-1-yl)imidazo[1,5-a]pyrazin-1-yl)-2-fluorophenyl)-6-methoxypyridine-3-sulfonamide] here?
A: The IC50 was 3100 nM.

Q: And the IC50 (IRE1α)?
A: The IC50 was 420 nM.

Q: For `CC(C)c1nc(-c2cc(F)c(NS(=O)(=O)c3ccccc3F)cc2F)c2c(N)ncc(C3=CCC(NC4COC4)CC3)n12` (centres unmarked) [Example 7, N-(4-(8-Amino-3-isopropyl-5-(4-(oxetan-3-ylamino)cyclohex-1-en-1-yl)imidazo[1,5-a]pyrazin-1-yl)-2,5-difluorophenyl)-2-fluorobenzenesulfonamide], which IC50 (XBP1 splicing; Homo sapiens) is on record?
A: Its IC50 is 540 nM.

Q: What about the IC50 (IRE1α) of the same compound?
A: The IC50 was 150 nM.

Q: Which IC50 (XBP1 splicing; Homo sapiens) does the source give for `CC(C)c1nc(-c2ccc(NS(=O)(=O)c3ccccc3Cl)c(F)c2)c2c(N)ncc([C@H]3CC[C@@H](NC4COC4)CC3)n12` [Example 3, N-(4-(8-Amino-3-isopropyl-5-((1s,4s)-4-(oxetan-3-ylamino)cyclohexyl)imidazo[1,5-a]pyrazin-1-yl)-2-fluorophenyl)-2-chlorobenzenesulfonamide] here?
A: Its IC50 is 300 nM.

Q: What about the IC50 (IRE1α) of the same compound?
A: The IC50 was 280 nM.

Q: Which results are given for `CC(C)c1nc(-c2ccc(NS(=O)(=O)c3ccccc3Cl)c(F)c2)c2c(N)ncc(C3=CCC(NCCS(C)(=O)=O)CC3)n12` (centres unmarked) [Example 16, N-(4-(8-Amino-3-isopropyl-5-(4-((2-(methylsulfonyl)ethyl)amino)cyclohex-1-en-1-yl)imidazo[1,5-a]pyrazin-1-yl)-2-fluorophenyl)-2-chlorobenzenesulfonamide]?
A: IC50 (XBP1 splicing; Homo sapiens): 110 nM; IC50 (IRE1α): 11 nM

Q: Which results are given for `CC(C)c1nc(-c2ccc(NS(=O)(=O)c3ccccc3Cl)c(F)c2)c2c(N)ncc([C@H]3CC[C@H](N)CC3)n12` [Example 2, N-(4-(8-Amino-5-((1r,4r)-4-aminocyclohexyl)-3-isopropylimidazo[1,5-a]pyrazin-1-yl)-2-fluorophenyl)-2-chlorobenzenesulfonamide]?
A: IC50 (XBP1 splicing; Homo sapiens): 15 nM; IC50 (IRE1α): 15 nM

Q: `Cc1cncc(S(=O)(=O)Nc2ccc(-c3nc(C(C)C)n4c(C5=CCC(NC6COC6)CC5)cnc(N)c34)cc2F)c1` (centres unmarked) [Example 13, N-(4-(8-Amino-3-isopropyl-5-(4-(oxetan-3-ylamino)cyclohex-1-en-1-yl)imidazo[1,5-a]pyrazin-1-yl)-2-fluorophenyl)-5-methylpyridine-3-sulfonamide] was tested. Which IC50 (XBP1 splicing; Homo sapiens) did it give?
A: The IC50 was 6400 nM.

Q: And the IC50 (IRE1α)?
A: Its IC50 is 360 nM.

Q: Which results are given for `CC(C)c1nc(-c2cnc(NS(=O)(=O)c3ccccc3Cl)c(F)c2)c2c(N)ncc(C3=CCC(NC4COC4)CC3)n12` (centres unmarked) [Example 10, N-(5-(8-Amino-3-isopropyl-5-(4-(oxetan-3-ylamino)cyclohex-1-en-1-yl)imidazo[1,5-a]pyrazin-1-yl)-3-fluoropyridin-2-yl)-2-chlorobenzenesulfonamide]?
A: IC50 (XBP1 splicing; Homo sapiens): 7700 nM; IC50 (IRE1α): 61 nM

Q: `Cc1nc(CS(=O)(=O)Nc2ccc(-c3nc(C(C)C)n4c(C5=CCC(N)CC5)cnc(N)c34)cc2F)cs1` (centres unmarked) [Example 17, N-(4-(8-Amino-5-(4-aminocyclohex-1-en-1-yl)-3-isopropylimidazo[1,5-a]pyrazin-1-yl)-2-fluorophenyl)-1-(2-methylthiazol-4-yl)methanesulfonamide] was tested. Which IC50 (XBP1 splicing; Homo sapiens) did it give?
A: Its IC50 is 7450 nM.

Q: What about the IC50 (IRE1α) of the same compound?
A: Its IC50 is 40 nM.

Q: For `COCCNC1CC=C(c2cnc(N)c3c(-c4ccc(NS(=O)(=O)c5ccccc5Cl)c(F)c4)nc(C(C)C)n23)CC1` (centres unmarked) [Example 19, N-(4-(8-amino-3-isopropyl-5-(4-((2-methoxyethyl)amino)cyclohex-1-en-1-yl)imidazo[1,5-a]pyrazin-1-yl)-2-fluorophenyl)-2-chlorobenzenesulfonamide], which IC50 (XBP1 splicing; Homo sapiens) is on record?
A: Its IC50 is 41 nM.

Q: And the IC50 (IRE1α)?
A: Its IC50 is 44 nM.

Reference: patent US20220194945A1, “Imidazolopyridine Compounds For IRE1 Inhibition” (Optikira, LLC, priority 2019, published 2022)
